Experimental data taken from US5183819A, “Use of fused bicyclic imides in the treatment of various CNS disorders” (American Home Products Corporation, priority 1992, dated 1993).

Columns and labels:
[1] = tested on: isolation-induced aggressive mice; conditions: White et al. 1991; cited from earlier work
[2] = tested on: male Wistar rats; assay: Ethanol consumption, free choice between water and 5% aqueous ethanol; conditions: zalospirone 40 mg/kg, fluoxetine 10 mg/kg intraperitoneal; for ethanol consumed compared to control (Ringer's solution): treatment periods, g/kg or ml/rat basis
Experimental: A 12 hour light/dark cycle was programmed with darkness commencing at 1900 hr. […] The drinking tube positions were switched daily. The ethanol concentration was increased by 1% every 3 days until a concentration of 5% was reached. All rats were weighed daily and water or aqueous ethanol intake recorded.
After 3 days at the 5% ethanol concentration the rats that had consumed the 5% ethanol consistently began baseline and the inconsistent or poor drinkers were dropped from the study. A total of 30 rats began baseline studies. Baseline consisted of 8 days of free choice between water and 5% aqueous ethanol. During this time each rat received intraperitoneal injections of Ringer's solution (NaCl, 0.86 g; KCl, 0.03 g; and CaCl2.2H2 O, 0.033 g diluted to 100 ml with distilled water). Weight and water or 5% aqueous ethanol consumption were determined daily at 0800 hr and 1800 hr.

[3] = tested on: mice; conditions: White et al. 1991; cited from earlier work
[4] = tested on: rats; conditions: intravenous or subcutaneous administration; cited from earlier work
[5] = tested on: monkeys with a preference for alcohol; conditions: cited from earlier work

Row | SMILES | aggression in isolation-induced aggressive mice [1] | ethanol consumed compared to control (Ringer's solution) [2] | total fluid intake vs control animals [2] | water consumption, treated vs. control rats [2] | paradoxical sleep [4] | slow wave sleep [4] | wakefulness [4] | further results
1 | O=C1c2ccccc2S(=O)(=O)N1CCCCN1CCN(c2ncccn2)CC1 [ipsapirone] | reduce aggression | – | – | – | – | – | – | –
2 | CNCCC(Oc1ccc(C(F)(F)F)cc1)c1ccccc1 (centres unmarked) [fluoxetine] | – | significantly less ethanol | less than with the control animals | no significant differences | – | – | – | food consumption compared to control rats [2]: decreased food consumption; weight gain compared to control rats [2]: significantly less weight gain
3 | O=C1C2C3C=CC(C4C=CC43)C2C(=O)N1CCCCN1CCN(c2ncccn2)CC1 (centres unmarked) [zalospirone, 3a,4,4a,6a,7a-hexahydro-2-[4-[4-(2-pyrimidinyl)-1-piperazinyl]butyl]-4,7-ethano-1H-cyclobut[f]isoindole-1,3(2H)-dione] | reduce aggression | significantly less ethanol | less than with the control animals | no significant differences | – | – | – | debilitating (sedating) effects at the antiaggressive dose [3]: without the debilitating (sedating) effects
4 | CC1(C)CC(=O)N(CCCCN2CCN(c3ncccn3)CC2)C(=O)C1 [gepirone] | reduce aggression | – | – | – | – | – | – | –
5 | CCCN(CCC)C1CCc2cccc(O)c2C1 (centres unmarked) [8-OH-DPAT, 8-hydroxy-2-(di-n-propylamino)tetralin] | – | – | – | – | reduced | reduced | increased wakefulness | –
6 | O=C1CC2(CCCC2)CC(=O)N1CCCCN1CCN(c2ncccn2)CC1 [buspirone] | reduce aggression | – | – | – | reduced | reduced | increased wakefulness | preference for alcohol [5]: lower the preference for alcohol
